Assay results as given in patent US4368267A, “Epoxidation of lower α-olefins” (priority 1980, dated 1983).
Several values for one entry are separate records, joined by “and”; a condition that tells them apart may be missing. Identical values can stand only once.

What was measured:
[1] = target: T1, P(40), P(80), S(80) cell fractions of Methylococcus capsulatus (Texas, ATCC 19,069) (Methylococcus capsulatus, UniProt G1UBD1+Q603F1+Q607G3); assay: Methane and propylene oxidation by cell fractions; type: biochemical
T1 sequence (G1UBD1 33-414): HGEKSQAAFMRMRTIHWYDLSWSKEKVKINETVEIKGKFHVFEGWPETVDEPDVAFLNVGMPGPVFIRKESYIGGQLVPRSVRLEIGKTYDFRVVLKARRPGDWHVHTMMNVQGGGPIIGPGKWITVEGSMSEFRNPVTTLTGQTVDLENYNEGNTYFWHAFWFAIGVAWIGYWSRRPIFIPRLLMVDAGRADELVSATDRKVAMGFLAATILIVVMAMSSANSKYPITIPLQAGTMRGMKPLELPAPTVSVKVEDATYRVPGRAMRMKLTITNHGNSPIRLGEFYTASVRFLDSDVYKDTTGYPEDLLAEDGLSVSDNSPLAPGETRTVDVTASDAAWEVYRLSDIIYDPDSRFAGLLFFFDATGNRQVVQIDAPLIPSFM
T1 sequence (Q607G3 1-247): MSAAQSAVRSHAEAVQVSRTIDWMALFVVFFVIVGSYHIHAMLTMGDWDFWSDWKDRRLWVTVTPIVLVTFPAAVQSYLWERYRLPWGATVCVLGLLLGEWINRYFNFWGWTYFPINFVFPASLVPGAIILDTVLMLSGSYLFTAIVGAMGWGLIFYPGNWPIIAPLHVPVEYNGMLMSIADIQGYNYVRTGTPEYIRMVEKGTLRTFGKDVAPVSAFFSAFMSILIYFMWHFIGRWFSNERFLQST
T1 sequence (Q603F1 1-260): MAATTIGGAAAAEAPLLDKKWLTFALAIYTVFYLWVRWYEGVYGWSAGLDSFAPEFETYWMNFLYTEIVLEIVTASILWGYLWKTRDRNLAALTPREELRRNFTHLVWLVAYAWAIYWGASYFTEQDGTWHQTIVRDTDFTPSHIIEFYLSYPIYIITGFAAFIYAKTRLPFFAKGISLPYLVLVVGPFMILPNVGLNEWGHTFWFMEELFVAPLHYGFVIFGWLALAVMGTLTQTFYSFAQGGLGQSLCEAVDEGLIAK
Description: (§1) Cells were washed twice with 25 mM potassium phosphate buffer, pH 7.0 containing 5 mM MgCl2. Cells were suspended in the same buffer. The cell suspensions at 4° C. were disintegrated by a single passage through a French Pressure cell (15,000 lb./in.^2) and centrifuged at 5000×g. for 15 min. to remove unbroken bacteria. The supernatant solution (crude extract) was then centrifuged at 40,000×g. for 30 min., yielding particulate P(40) and soluble S(40) fractions. The S(40) fraction was subsequently centrifuged at 80,000×g. for 60 min., yielding particulate P(80) and soluble S(80) fractions. The particulate fractions [P(40) and P(80)] were suspended in 25 mM potassium phosphate buffer, pH 7.0, containing 5 mM MgCl2 and homogenized at 4° C.
(§2) The oxidation of methane and propylene by particulate [(P)40 and (P)80] fractions and soluble [S(80)] fraction was measured at 30° C. by estimating the production of methanol and propylene oxide, respectively. The reaction mixtures contained in 1.0 ml: 150 mM potassium phosphate buffer, pH 7.0 containing 5 mM MgCl2, 0.6 ml; […] NADH, and cellular fraction.
(§3) Reaction mixtures were contained in 10 ml vials at 4° C. Vials were sealed with rubber caps. The gaseous phase in the vials was removed using vacuum and then was replaced with a gas mixture of methane or propylene and oxygen at a 1:1, v/v ratio. Oxidation of other gaseous n-alkanes and n-alkenes was examined as described above. For liquid substrates, 10 μl of substrate was used directly.
(§4) The products of epoxidation of n-alkenes and hydroxylation of n-alkanes were assayed by flame ionization gas chromatography using a stainless steel column (12'×1/8") packed with 10% Carbowax 20 M on 80/100 Chromosorb W and Porapak Q column. The column temperature was maintained isothermally at 120° C. The carrier gas flow rate was 30 ml/min. of helium. The various products were identified by retention time comparisons and co-chromatography with authentic standards.
(§5) Specific activities were expressed as μ moles of products formed per hour per mg. protein. Concentrations of protein in various fractions were determined by the method of Lowry et al., J. Biol. Chem. 193: 265-275 (1951).

[2] = test system: P(40), P(80), S(80) cell fractions of Methylosinus trichosporium (OB3b, NRRL B-11,196); assay: Methane and propylene oxidation by cell fractions; type: biochemical; settings: S(80) fraction, 30° C.
Description: as §1, §2, §3, §4, §5

[3] = test system: Methylosinus sporium 5 (NRRL B-11,197); assay: Methane hydroxylation and alkene epoxidation by washed cell suspensions; type: cell-based; settings: methane-grown washed cells, 30° C.
Description: The pH of the nutrient medium was adjusted to 7.0 by the addition of acid or base and 50 ml aliquots of the nutrient medium was charged into a plurality of 300 ml shake flasks. […] The isolates had been maintained on agar plates under an atmosphere of methane and air having a 1:1 v/v gas ratio which had been transferred every two weeks. The gaseous phase of the inoculated flasks was then replaced with a gas mixture comprised of methane and air having a ratio of 1:1 on a v/v basis. The inoculated flasks were sealed air tight and were incubated on a rotary shaker of orbital radius 2.5 cm at 250 rpm and at 30° C. for two days until the turbidity in the medium had developed.
The cells were harvested by centrifugation at 10,000 ×g at 4° C. for 30 minutes. The cell pellet was washed twice with a 0.15 M phosphate buffer at a pH of 7.0 (containing 0.002 M MgCl2). The washed cells were then suspended in a 0.15 M phosphate buffer at pH 7.0.
A 0.5 ml aliquot of each washed cell suspension (2 mg cells) was put into 10 ml vials at 4° C. which were sealed with a rubber cap. […] It was then incubated at 30° C. on a rotary shaker at 300 rpm. Samples of product (3 μl) were withdrawn periodically with a microsyringe and the products were analyzed by gas chromatography (ionization flame detector column).

[4] = target: T2, cell-free fractions of Methylococcus capsulatus (CRL M1, NRRL B-11,219) (Methylococcus capsulatus, UniProt G1UBD1+Q603F1+Q607G3); assay: Epoxidation and hydroxylation activities in cell-free fractions; type: biochemical
T2 sequence (G1UBD1 33-414): T1 sequence (G1UBD1 33-414)
T2 sequence (Q607G3 1-247): T1 sequence (Q607G3 1-247)
T2 sequence (Q603F1 1-260): T1 sequence (Q603F1 1-260)
Description: Cells of methane-grown Methylococcus capsulatus (CRL M1, NRRL B-11,219) were obtained by the method of Example 1. […] However, when the cells were disrupted by passing twice through a French pressure cell (1000 Kg. pressure), both activities were found in the crude extract after 10,000×g. centrifugation. All of the activity in the crude extract was collected as a particulate fraction by further centrifugation of the crude extract at 40,000×g. for 90 min. at 4° C.

[5] = Particulate fraction (10,000 g.-40,000 g.), 1 mg. protein
[6] = Supernatant fraction of 40,000 g., 2.5 mg. protein

Structure (SMILES) | % Distribution in Cell Fraction, Methane-Hydroxylating Activity, P(40) ([1]; P(40) fraction) [%] | Methane-Oxidizing Activity, P(40) ([1]; P(40) fraction, 30° C.) | % Distribution in Cell Fraction, Methane-Hydroxylating Activity, P(80) ([1]; P(80) fraction) [%] | Methane-Oxidizing Activity, P(80) ([1]; P(80) fraction, 30° C.) | % Distribution in Cell Fraction, Methane-Hydroxylating Activity, S(80) ([1]; S(80) fraction) [%] | Methane-Oxidizing Activity, S(80) ([1]; S(80) fraction, 30° C.) | Methane-Oxidizing Activity, S(80) [2] | Conversion rate, methane hydroxylation (methane to methanol) [3] | Oxidation Rate, Hydroxylation of Methane [4, 5] [μmoles/30 min/assay] | Oxidation Rate, Hydroxylation of Methane [4, 6] [μmoles/30 min/assay] | % Distribution in Cell Fraction, Propylene-Epoxidizing Activity, P(40) ([1]; P(40) fraction) [%] | Propylene-Oxidizing Activity, P(40) ([1]; P(40) fraction, 30° C.) | % Distribution in Cell Fraction, Propylene-Epoxidizing Activity, P(80) ([1]; P(80) fraction) [%] | Propylene-Oxidizing Activity, P(80) ([1]; P(80) fraction, 30° C.) | % Distribution in Cell Fraction, Propylene-Epoxidizing Activity, S(80) ([1]; S(80) fraction) [%] | Propylene-Oxidizing Activity, S(80) ([1]; S(80) fraction, 30° C.) | Propylene-Oxidizing Activity, S(80) [2] | Conversion rate, propylene to propylene oxide [3] [μmole/hr/mg protein] | Oxidation Rate, Epoxidation of Propylene [4, 5] [μmoles/30 min/assay] | Oxidation Rate, Epoxidation of Propylene [4, 6] [μmoles/30 min/assay]
C [Methane] | 90 | 3.8 μmoles of product formed per h | 10 | 3.9 μmoles of product formed per h | 0 | 0 μmoles of product formed per h | 0 μmoles of product formed per h | 1.1 μmole/hr/mg protein and 1.8 μmole/hr/mg protein | 500 | 0 | – | – | – | – | – | – | – | – | – | –
C=CC [Propylene] | – | – | – | – | – | – | – | – | – | – | 89 | 2.6 μmoles of product formed per h | 11 | 2.0 μmoles of product formed per h | 0 | 0 μmoles of product formed per h | 0 μmoles of product formed per h | 2.0 | 750 | 0
